Results reported in article PMC9681850, “Structural basis of synthetic agonist activation of the nuclear receptor REV-ERB” (Nature Communications, 2022).
“And” between values parts separate entries of the source, which are not always exact repeats. Equal entries are not always repeated.

How the values were obtained:
[1] = system: proliferating C2C12 mouse myoblast cells; assay: cell viability by crystal violet staining; format: cell-based; conditions: for cell viability (Fig. 2b source data): crystal violet, normalized to DMSO, single replicates; for reduction in cellular viability: proliferating C2C12 cells
Procedure: Cellular viability was tested in two cell types, human hepatocarcinoma HepG2 cells and proliferating C2C12 mouse myoblast cells.
Data are presented as mean ± SEM. Source data are available as a Source Data file.
The human hepatocellular carcinoma cell line, HepG2 cells (ATCC HB-8065), were cultured in 10% FBS 1% L-Glu MEM at 37 °C in a humidified atmosphere of 5% CO2. Prior to RNA extraction cells were treated with either DMSO or REV-ERB agonist for 24 h. The C2C12 proliferating mouse myoblast cells (ATCC, CRL-1772) were cultured in 10% FBS DMEM at 37 °C in a humidified atmosphere of 5% CO2. Prior to RNA extraction cells were treated with either DMSO or REV-ERB agonist for 24 h. […]
[…] Media was removed, and cells were incubated with 0.5% crystal violet solution for 20 min at room temperature with mild agitation. Cells were washed four times with tap water before being air drying overnight. Cells were incubated in methanol for 20 min with mild agitation. Absorbance was read at 570 nm, and readings were normalized to vehicle (DMSO) treated cells.

[2] = system: Bmal1 expression in liver; assay: Bmal1 expression in liver after i.p. administration; format: in vivo, C57Bl/6 J mice; conditions: mice, 50 mg/kg i.p., 12 h post administration, single animals
[3] = mouse liver microsome stability assay; format: in vitro ADME; conditions: liver microsomes
Excerpt: We thank the reviewers for the constructive comments, and we have responded to each of the […]
Overall, this is a commendable structure-function study on the transcriptional repressor, REV-ERBα. It includes the identification of an agonist that belongs to the non-heme class of small ligands. The study combines cell-based and in vitro, in vivo, and crystallographic analyses of the ligand-receptor molecular complex.
However, as a spring-board for therapeutic drug discovery, there are a few additional issues that may need to be clarified.
1. In the HEK293 2-hybrid assay, the ERB agonists are described as activators of transcription.
Perhaps, they would be more appropriately described as 'repressors'.
We have updated the manuscript to clarify this issue. In the original manuscript, we used the following to describe how the 2-hybrid assay switches agonists from repressors to activators to allow for better resolution of activity, “This format of the assay essentially functions as a mammalian 2-hybrid assay and detects REVERB agonists as activators of transcription effectively enhancing the sensitivity of such an assay from the typical one hybrid system that detects enhancement of transcriptional repression.” […]

half-life [3]: 34 min
Compound: Clc1nnc2ccc(Oc3ccccc3-c3ccccc3)nn12 [STL1267]
cell viability (Fig. 2b source data) ([1]; C2C12, 1 uM): 92.0631 and 77.3068 and 87.5705 and 94.4131 and 98.2145 and 106.232 and 102.707 | cell viability (Fig. 2b source data) ([1]; C2C12, 2 uM): 85.9463 and 90.0242 and 93.8256 and 90.5771 and 97.5579 and 103.433 and 103.26 and 102.949 | cell viability (Fig. 2b source data) ([1]; C2C12, 5 uM): 92.9616 and 90.6808 and 91.0609 and 85.0824 and 101.498 and 105.679 and 104.435 and 94.6204 | cell viability (Fig. 2b source data) ([1]; C2C12, 10 uM): 88.9874 and 85.3588 and 77.2722 and 82.9397 and 90.0242 and 92.8925 and 94.5859 and 92.7197 | cell viability (Fig. 2b source data) ([1]; C2C12, 20 uM): 77.9634 and 78.8964 and 75.3024 and 82.4905 and 83.4236 and 81.9721 and 84.5985 and 90.5771 | reduction in cellular viability ([1]; 10 μM): ~ 10% | reduction in cellular viability ([1]; 20 μM): ~ 20% | Bmal1 expression in liver [2]: effectively suppressed Bmal1 expression and 0.9475 and 0.6115 and 0.4288 and 0.62 and 0.8061 and 0.4099
